Data: article PMC11458808, “Identification and development of a series of disubstituted piperazines for the treatment of Chagas disease” (European Journal of Medicinal Chemistry, 2022)
In brackets after ≈: the same amount, converted by molar mass.

Columns and labels:
[1] = system: T. cruzi infected Vero cells; test: Washout assay; assay type: cell-based, Trypanosoma cruzi; conditions: for Relapse Day: 8 days treatment
Method: (§1) (Supplementary Information, Fig. S1). We tested 1 in a T. cruzi washout assay to assess the compound's ability to clear all parasites in vitro. In this experiment, T. cruzi, cultured in Vero cells were treated with compound 1 at 20- to 30-fold the EC50 for 8 days (with compound being re-supplemented after 4 days). After treatment, the culture medium containing compound 1 was removed, the cell monolayer was washed extensively and then incubated with fresh medium containing no compound 1. […] The same result was obtained in three independent experiments (Supplementary Information, Table S1). […] We therefore ran a 4-day PK study on 1, dosing at 50 mg/kg twice daily. As the intrinsic clearance was very high, compound 1 was co-dosed with 1-ABT (1-aminobenzotriazole) to inhibit CYP-mediated degradation and maximise exposure. […] As this was a novel series with an unknown mechanism of action, the PKPD drivers were unknown, so this coverage was considered suitable for progression to an animal model of Chagas disease. Compound 1 was dosed twice daily at 50 mg/kg for 5 days in an acute Chagas disease mouse efficacy study. This mouse model, developed by the Kelly laboratory, is able to distinguish between benznidazole (clinically effective) and posaconazole (clinically ineffective).
1.2 Washout assay: Vero cells were infected overnight at MOI 5 with T. cruzi X10/7 A1 trypomastigotes in MEM media (Gibco) containing 10% FCS (Hyclone) followed by washing of the monolayer to remove any extracellular trypomastigotes. 24 h later, infected cells were trypsinised and plated in T25 flasks in presence of compounds at the indicated concentrations and incubated for 8 days in MEM media (Gibco) containing 1% FCS. Four days into the treatment the media was replaced with fresh compound-containing media. After the treatment period, monolayers were washed extensively. The cultures were then maintained, replacing media twice weekly, until trypomastigotes could be observed by light microscopy. Observations were carried out twice weekly for up to 60 days post washout.
Results for three independent washout experiments (experiment c is reported in the main manuscript). T. cruzi infected Vero cells were treated for 8 days at the indicated concentrations (compounds replenished after 4 days), followed by extensive washing to remove compounds and incubation until parasites were observed microscopically. ^a day after washout of compounds on which egressed parasites were detected first.

[2] = ChromLogD pH7.4 (chromatographic hydrophobicity index); assay type: physicochemical; conditions: pH 7.4, CHIpH7.4 × 0.0857–2; for chromatographic logD: read-out: ChromlogDpH7.4
[3] = Aqueous (kinetic) solubility by CAD; assay type: physicochemical; conditions: kinetic solubility measured by CAD
Method: 2.1 Aqueous solubility: This assay was conducted as previously described in [4].

[4] = Intrinsic clearance in mouse liver microsomes; assay type: in vitro ADME; conditions: mouse liver microsomal intrinsic clearance
Method: 2.2 Intrinsic clearance: This assay was conducted as previously described in [5].

intracellular T. cruzi = system: intracellular T. cruzi; parameters: method as in PMID 25740547; conditions: HTS in NIH-3T3 fibroblasts; cited from earlier work
T. cruzi = test: Acute Chagas disease mouse efficacy study (bioluminescence imaging); assay type: in vivo, Trypanosoma cruzi
Method: as §1, with “Compound 1 was dosed twice daily at 50 mg/kg for 5 days in an acute Chagas disease mouse efficacy study. This mouse model, developed by the Kelly laboratory, is able to distinguish between benznidazole (clinically effective) and posaconazole (clinically ineffective).” left out
Fig. 2 Results of acute T. cruzi infection efficacy study. […] 5 day dosing begins on day 14 (b) Quantification (Total Flux [p/s]) of combined ventral and dorsal bioluminescence for the mice shown in (c). […] (For interpretation of the references to colour in this figure legend, the reader is referred to the Web version of this article.) […]

[5] = system: intracellular T. cruzi X10/7-E2Crimson; test: Rate-of-kill studies; assay type: cell-based, Trypanosoma cruzi; conditions: compared with posaconazole (CYP51 inhibitor)
Method: 1.3 Rate-of-kill studies: Experiments with intracellular T. cruzi X10/7-E2Crimson were carried out as previously described in [2].

T. cruzi CYP51 = T. cruzi CYP51 (Trypanosoma cruzi, UniProt Q7Z1V1); test: CYP51 assay; assay type: biochemical; conditions: read-out: T.cruzi CYP51 (pIC50) (converted)
T. cruzi CYP51, sequence (Q7Z1V1 whole entry): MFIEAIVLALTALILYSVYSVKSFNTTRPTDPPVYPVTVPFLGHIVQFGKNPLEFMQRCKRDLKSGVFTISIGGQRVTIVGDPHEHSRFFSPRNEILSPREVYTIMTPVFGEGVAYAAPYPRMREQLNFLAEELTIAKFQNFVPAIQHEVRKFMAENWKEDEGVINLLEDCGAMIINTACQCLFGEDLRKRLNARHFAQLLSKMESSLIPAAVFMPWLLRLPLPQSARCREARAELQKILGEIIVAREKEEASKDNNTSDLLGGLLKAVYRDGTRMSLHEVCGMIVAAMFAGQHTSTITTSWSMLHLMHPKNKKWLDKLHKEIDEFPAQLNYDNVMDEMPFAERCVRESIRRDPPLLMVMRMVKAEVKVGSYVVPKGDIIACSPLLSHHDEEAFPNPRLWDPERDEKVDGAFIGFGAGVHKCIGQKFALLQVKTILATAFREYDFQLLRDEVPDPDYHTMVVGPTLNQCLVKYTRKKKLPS
Method: 1.4 CYP51 assay: Potency against T. cruzi CYP51 was determined as previously described in [3].

[6] = system: intracellular T. cruzi X10/7 A1 amastigotes; test: Intracellular T. cruzi assay; assay type: cell-based, Trypanosoma cruzi; conditions: potency against intracellular T. cruzi amastigotes, at least three independent replicates, standard deviations ≤0.2; for EC50: Trypanosoma cruzi, read-out: T. cruzi (pEC50) (converted)
Method: 1.1 Intracellular T. cruzi assay: Potency against intracellular T. cruzi X10/7 A1 amastigotes was determined as described previously with as sole modification that the compound treatment duration was increased from 72h to 96h.

[7] = Blood exposure in the acute efficacy study; assay type: in vivo, mouse; conditions: days 1 and 5; 50 mg/kg b.i.d. with 1-ABT
Method: as §1, with “Compound 1 was dosed twice daily at 50 mg/kg for 5 days in an acute Chagas disease mouse efficacy study. This mouse model, developed by the Kelly laboratory, is able to distinguish between benznidazole (clinically effective) and posaconazole (clinically ineffective).” left out
Fig. 2 Results of acute T. cruzi infection efficacy study. […] 5 day dosing begins on day 14 (b) Quantification (Total Flux [p/s]) of combined ventral and dorsal bioluminescence for the mice shown in (c). […] (For interpretation of the references to colour in this figure legend, the reader is referred to the Web version of this article.)

Row | Compound | chromatographic logD [2] | solubility [3] | Mouse CLi [4] | EC50 [6] | further results
1 | O=C(Cn1ccnc1[N+](=O)[O-])NCc1ccccc1 [benznidazole] | – | – | – | – | Relapse Day ([1]; experiment a, replicate 1, 36 µM, 12.5-fold EC50): 18 days; Relapse Day ([1]; experiment a, replicate 2, 36 µM, 12.5-fold EC50): 14 days; Relapse Day ([1]; experiment b, 36 µM, 12.5-fold EC50): 14 days; Relapse Day ([1]; experiment c, 36 μM, 12.5-fold EC50): 18 days; Relapse Day ([1]; experiment c, 144 μM, 50-fold EC50, observed up to 60 days): >60 days
2 | Cc1ccc(S(=O)(=O)Nc2ccc(CN3CCN(C(=O)c4cccc(Cl)c4)CC3)cc2)cc1 [Compound 1, N-(4-((4-(3-chlorobenzoyl)piperazin-1-yl)methyl)phenyl)-4-methylbenzenesulfonamide] | 5.8 | 38 µM (≈ 18.4 µg/mL) | >50 mL/min/g | 0.158 µM | Time after washout until parasite relapse was observed ([1]; 20- to 30-fold the EC50 for 8 days, re-supplemented after 4 days): ~2 weeks; Relapse Day ([1]; experiment a, 5 µM, 32-fold EC50): 11 days; Relapse Day ([1]; experiment b, 5.5 µM, 35-fold EC50): 14 days; Relapse Day ([1]; experiment c, 3.9 μM, 25-fold EC50, day after washout on which egressed parasites first detected): 11 days; Outcome after immunosuppression (T. cruzi; 50 mg/kg b.i.d. for 5 days with 1-ABT, cyclophosphamide 200 mg/kg i.p. days 28, 32, 36): relapse is observed post immunosuppression; Parasite burden (T. cruzi; 50 mg/kg b.i.d. for 5 days, 1-ABT 50 mg/kg pre-treatment, compared to vehicle): reduction in parasite burden compared to vehicle; Rate-of-kill profile [5]: faster kill profile; IC50 (T. cruzi CYP51): 20 µM; Total blood exposure relative to in vitro EC99 [7]: exceeded the in vitro EC99 for the duration of dosing
3 | CC[C@@H]([C@H](C)O)n1ncn(-c2ccc(N3CCN(c4ccc(OC[C@@H]5CO[C@@](Cn6cncn6)(c6ccc(F)cc6F)C5)cc4)CC3)cc2)c1=O [posaconazole] | – | – | – | – | Relapse Day ([1]; experiment a, 0.2 µM, 50-fold EC50): 7 days; Relapse Day ([1]; experiment b, 0.2 µM, 50-fold EC50): 11 days; Relapse Day ([1]; experiment c, 0.1 μM, 25-fold EC50): 7 days
4 | 4-methoxy-N-(4-((4-(1-methyl-4-oxo-1,4-dihydroquinoline-2-carbonyl)piperazin-1-yl)methyl)phenyl)benzenesulfonamide [Compound 27] | – | 29 µM | >50 mL/min/g | – | ChromlogDpH7.4 [2]: 5.4; T. cruzi (pEC50) [6]: 5.4
5 | Cc1ccc(S(=O)(=O)Nc2ccc(CN(C)C3CCN(C(=O)c4cccc(Cl)c4)C3)cc2)cc1 (stereo in doubt) [Compound 34, (S)-N-(4-(((1-(3-chlorobenzoyl)pyrrolidin-3-yl)(methyl)amino)methyl)phenyl)-4-methylbenzenesulfonamide] | 5.7 | 28 µM (≈ 13.9 µg/mL) | >50 mL/min/g | 10 µM | –

The next lines start with results.

Row | chromatographic logD [2] | solubility [3] | Mouse CLi [4] | Compound | EC50 [6] | further results
6 | 4.8 | 85 µM (≈ 40.3 µg/mL) | 30 mL/min/g | Cc1ccc(S(=O)(=O)Nc2ccc(CN3CCN(C(=O)c4cccc(C#N)c4)CC3)cc2)cc1 [TCMDC-143497] | – | T. cruzi pEC50 (reported potency) (intracellular T. cruzi): 6.4
7 | 5.5 | 35 µM (≈ 18 µg/mL) | >50 mL/min/g | COc1ccc(S(=O)(=O)Nc2ccc(CCN3CCN(C(=O)c4cccc(Cl)c4)CC3)cc2)cc1 [Compound 40, N-(4-(2-(4-(3-chlorobenzoyl)piperazin-1-yl)ethyl)phenyl)-4-methoxybenzenesulfonamide] | 5.01 µM | –
8 | 5.1 | 18 µM (≈ 9.54 µg/mL) | >50 mL/min/g | COc1ccc(S(=O)(=O)Nc2ccc(CN3CCN(C(=O)c4ccc(OC)c(Cl)c4)CC3)cc2)cc1 [Compound 13, N-[4-[[4-(3-chloro-4-methoxy-benzoyl)piperazin-1-yl]methyl]phenyl]-4-methoxy-benzenesulfonamide] | 3.16 µM | –
9 | 5.6 | < 1 µM | 40 mL/min/g | Cc1ccc(S(=O)(=O)Nc2ccc(CN3CCN(C(=O)c4cc5ccccc5[nH]4)CC3)cc2)cc1 [Compound 23, N-(4-((4-(1H-indole-2-carbonyl)piperazin-1-yl)methyl)phenyl)-4-methylbenzenesulfonamide] | 0.2 µM | –
10 | 5.8 | 13 µM (≈ 6.68 µg/mL) | >50 mL/min/g | COc1ccc(S(=O)(=O)Nc2ccc(CN3CCN(C(=O)c4ccc(C)c(Cl)c4)CC3)cc2)cc1 [Compound 15, N-(4-((4-(3-chloro-4-methylbenzoyl)piperazin-1-yl)methyl)phenyl)-4-methoxybenzenesulfonamide] | 1.26 µM | –
